From paper PMC8008885 (Journal of Enzyme Inhibition and Medicinal Chemistry, 2021)

Tested on: STHdhQ7/7 (wild type) cells
Experiment: Cell viability MTT assay
Format: cell-based
Settings: 24 h, concentration range 1–100 µM
Method: Cell viability was quantified using MTT assay (Sigma, St. Louis, MO, M2128). In brief, cells were cultured in each well of 96-well plates with varying concentrations of compounds for 24 h. Following incubation of cells in each well with MTT (0.5 mg/ml) for 4 h, the culture supernatant was discarded. Cells were washed with PBS three times, and the insoluble formazan product dissolved in DMSO. The optical density (OD) of each culture well was measured using as ELISA reader at 570 nm. The OD570 in control cells was taken as 100% viability.
Next, we evaluated the inhibitory activity of our compound against SETDB1 enzyme by comparing with a well-known methyltransferase inhibitor […] using chemo-luminescence assay (Figure S1a).

Structure (SMILES): C=CCOc1cccc2nc(N3CCCC3)ccc12 [APQ, 5-allyloxy-2-(pyrrolidin-1-yl)quinoline]
- cytotoxicity (cell viability, MTT): did not show any cytotoxicity
